Assay results taken from PubChem BioAssay (NCI).
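Tested at 5 concentrations; 48 h exposure; 96-well plates; endpoints linearly interpolated, else capped at highest concentration. GI50 marks 50% less growth. TGI is the concentration that stops growth completely.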

What was measured:
Assay in all cases: NCI-60 cell line screen, 48 h; in the data active = GI50 below about 0.43 µM; inactive = the rest
RPMI-8226 leukemia = system: RPMI-8226 leukemia
RXF 393 renal = system: RXF 393 renal
IGROV1 ovarian = system: IGROV1 ovarian
K-562 leukemia = system: K-562 leukemia
U251 CNS = system: U251 CNS
SNB-19 CNS = system: SNB-19 CNS
OVCAR-4 ovarian = system: OVCAR-4 ovarian
SK-MEL-2 melanoma = system: SK-MEL-2 melanoma
HOP-92 NSCLC = system: HOP-92 NSCLC
NCI-H460 lung = system: NCI-H460 lung
SF-539 CNS = system: SF-539 CNS
SK-OV-3 ovarian = system: SK-OV-3 ovarian
OVCAR-8 ovarian = system: OVCAR-8 ovarian
PC-3 prostate = system: PC-3 prostate
UO-31 renal = system: UO-31 renal
LOX IMVI melanoma = system: LOX IMVI melanoma
KM12 colon = system: KM12 colon
M14 melanoma = system: M14 melanoma
OVCAR-3 ovarian = system: OVCAR-3 ovarian
T-47D breast = system: T-47D breast
A498 renal = system: A498 renal
SK-MEL-5 melanoma = system: SK-MEL-5 melanoma
UACC-257 melanoma = system: UACC-257 melanoma
SR leukemia = system: SR leukemia
MCF7 breast = system: MCF7 breast
786-0 renal = system: 786-0 renal
A549 NSCLC = system: A549 NSCLC
SF-295 CNS = system: SF-295 CNS
SK-MEL-28 melanoma = system: SK-MEL-28 melanoma
DU-145 prostate = system: DU-145 prostate
SW-620 colon = system: SW-620 colon
EKVX NSCLC = system: EKVX NSCLC
NCI-H522 lung = system: NCI-H522 lung
HCT-116 colon = system: HCT-116 colon
ACHN renal = system: ACHN renal
OVCAR-5 ovarian = system: OVCAR-5 ovarian
UACC-62 melanoma = system: UACC-62 melanoma
HS 578T breast = system: HS 578T breast
HOP-62 NSCLC = system: HOP-62 NSCLC
CCRF-CEM leukemia = system: CCRF-CEM leukemia
CAKI-1 renal = system: CAKI-1 renal
SN12C renal = system: SN12C renal
BT-549 breast = system: BT-549 breast
MOLT-4 leukemia = system: MOLT-4 leukemia
COLO 205 colon = system: COLO 205 colon
SNB-75 CNS = system: SNB-75 CNS
HCC-2998 colon = system: HCC-2998 colon
HT29 colon = system: HT29 colon
NCI-H23 lung = system: NCI-H23 lung
MDA-MB-435 = system: MDA-MB-435
SF-268 CNS = system: SF-268 CNS
NCI/ADR-RES ovarian = system: NCI/ADR-RES ovarian
HL-60(TB) leukemia = system: HL-60(TB) leukemia
TK-10 renal = system: TK-10 renal
NCI-H226 lung = system: NCI-H226 lung
HCT-15 colon = system: HCT-15 colon
MDA-MB-231 breast = system: MDA-MB-231 breast

CC1=NN(c2nc(N)nc(COCc3nc(N)nc(N4N=C(C)CC4(C)C)n3)n2)C(C)(C)C1
> 100 µM: TGI (RPMI-8226 leukemia) | TGI (RXF 393 renal) | TGI (IGROV1 ovarian) | TGI (K-562 leukemia) | TGI (U251 CNS) | TGI (SNB-19 CNS) | TGI (OVCAR-4 ovarian) | TGI (SK-MEL-2 melanoma) | TGI (HOP-92 NSCLC) | TGI (NCI-H460 lung) | TGI (SF-539 CNS) | TGI (SK-OV-3 ovarian) | TGI (OVCAR-8 ovarian) | TGI (PC-3 prostate) | TGI (UO-31 renal) | TGI (LOX IMVI melanoma) | TGI (KM12 colon) | TGI (M14 melanoma) | TGI (OVCAR-3 ovarian) | TGI (T-47D breast) | TGI (A498 renal) | TGI (SK-MEL-5 melanoma) | TGI (UACC-257 melanoma) | TGI (SR leukemia) | TGI (MCF7 breast) | TGI (786-0 renal) | TGI (A549 NSCLC) | TGI (SF-295 CNS) | TGI (SK-MEL-28 melanoma) | TGI (DU-145 prostate) | TGI (SW-620 colon) | TGI (EKVX NSCLC) | TGI (NCI-H522 lung) | TGI (HCT-116 colon) | TGI (ACHN renal) | TGI (OVCAR-5 ovarian) | TGI (UACC-62 melanoma) | TGI (HS 578T breast) | TGI (HOP-62 NSCLC) | TGI (CCRF-CEM leukemia) | TGI (CAKI-1 renal) | TGI (SN12C renal) | TGI (BT-549 breast) | TGI (MOLT-4 leukemia) | TGI (COLO 205 colon) | TGI (SNB-75 CNS) | TGI (HCC-2998 colon) | TGI (HT29 colon) | TGI (NCI-H23 lung) | TGI (MDA-MB-435) | TGI (SF-268 CNS) | TGI (NCI/ADR-RES ovarian) | TGI (HL-60(TB) leukemia) | TGI (TK-10 renal) | TGI (NCI-H226 lung) | TGI (HCT-15 colon) | TGI (MDA-MB-231 breast)

Cc1ccc(S(=O)(=O)NC2=NCCN2C(=S)SN2CCn3c2nsc3=S)cc1
51.7 µM: TGI (PC-3 prostate)
97.5 µM: TGI (HT29 colon)
83.1 µM: TGI (SNB-19 CNS)
34.6 µM: TGI (IGROV1 ovarian)
43.4 µM: TGI (UACC-257 melanoma)
72.1 µM: TGI (OVCAR-8 ovarian)
27.9 µM: TGI (OVCAR-3 ovarian)
32.1 µM: TGI (M14 melanoma)
90.2 µM: TGI (A549 NSCLC)
active: GI50 (SK-OV-3 ovarian) 0.116 µM
89.2 µM: TGI (SK-MEL-2 melanoma)
50.3 µM: TGI (SK-MEL-5 melanoma)
73.2 µM: TGI (RPMI-8226 leukemia)
32.7 µM: TGI (KM12 colon) | TGI (SK-MEL-28 melanoma)
42.4 µM: TGI (K-562 leukemia)
39 µM: TGI (U251 CNS)
51.9 µM: TGI (CCRF-CEM leukemia)
50.6 µM: TGI (HCC-2998 colon) | TGI (NCI-H226 lung)
28.2 µM: TGI (OVCAR-4 ovarian)
13.6 µM: TGI (SK-OV-3 ovarian)
14.6 µM: TGI (CAKI-1 renal)
36.6 µM: TGI (SR leukemia)
4.25 µM: TGI (LOX IMVI melanoma)
inactive: GI50 (RPMI-8226 leukemia) 16.7 µM | GI50 (RXF 393 renal) 8.17 µM | GI50 (IGROV1 ovarian) 14.1 µM | GI50 (K-562 leukemia) 14.8 µM | GI50 (U251 CNS) 19.1 µM | GI50 (SNB-19 CNS) 28.6 µM | GI50 (OVCAR-4 ovarian) 14 µM | GI50 (SK-MEL-2 melanoma) 28.6 µM | GI50 (HOP-92 NSCLC) 24.7 µM | GI50 (NCI-H460 lung) 31 µM | GI50 (SF-539 CNS) 22 µM | GI50 (OVCAR-8 ovarian) 24.3 µM | GI50 (PC-3 prostate) 17.2 µM | GI50 (UO-31 renal) 2.93 µM | GI50 (LOX IMVI melanoma) 1.92 µM | GI50 (KM12 colon) 16.6 µM | GI50 (M14 melanoma) 15.2 µM | GI50 (OVCAR-3 ovarian) 10.5 µM | GI50 (T-47D breast) 11.3 µM | GI50 (A498 renal) 28.6 µM | GI50 (SK-MEL-5 melanoma) 21.8 µM | GI50 (UACC-257 melanoma) 19 µM | GI50 (SR leukemia) 7.29 µM | GI50 (MCF7 breast) 32.5 µM | GI50 (786-0 renal) 19.1 µM | GI50 (A549 NSCLC) 30.4 µM | GI50 (SF-295 CNS) 18.2 µM | GI50 (SK-MEL-28 melanoma) 17.2 µM | GI50 (DU-145 prostate) 26.4 µM | GI50 (SW-620 colon) 14.1 µM | GI50 (EKVX NSCLC) 27.7 µM | GI50 (NCI-H522 lung) 5.01 µM | GI50 (HCT-116 colon) 13.7 µM | GI50 (ACHN renal) 6.56 µM | GI50 (OVCAR-5 ovarian) 20.1 µM | GI50 (UACC-62 melanoma) 15.1 µM | GI50 (HS 578T breast) 31.4 µM | GI50 (HOP-62 NSCLC) 22.4 µM | GI50 (CCRF-CEM leukemia) 14 µM | GI50 (CAKI-1 renal) 3.47 µM | GI50 (SN12C renal) 19.4 µM | GI50 (BT-549 breast) 23.4 µM | GI50 (MOLT-4 leukemia) 20.6 µM | GI50 (COLO 205 colon) 6.62 µM | GI50 (SNB-75 CNS) 24.7 µM | GI50 (HCC-2998 colon) 21 µM | GI50 (HT29 colon) 29.9 µM | GI50 (MDA-MB-435) 17.3 µM | GI50 (SF-268 CNS) 32.4 µM | GI50 (NCI/ADR-RES ovarian) 31.8 µM | GI50 (HL-60(TB) leukemia) 11.2 µM | GI50 (TK-10 renal) 11.1 µM | GI50 (NCI-H226 lung) 19.9 µM | GI50 (HCT-15 colon) 15.1 µM | GI50 (MDA-MB-231 breast) 15.1 µM
40.8 µM: TGI (OVCAR-5 ovarian)
26.2 µM: TGI (T-47D breast)
55.8 µM: TGI (BT-549 breast)
> 100 µM: TGI (HOP-92 NSCLC) | TGI (NCI-H460 lung) | TGI (MCF7 breast) | TGI (DU-145 prostate) | TGI (EKVX NSCLC) | TGI (HS 578T breast) | TGI (MOLT-4 leukemia) | TGI (NCI/ADR-RES ovarian)
41.8 µM: TGI (MDA-MB-435)
57.5 µM: TGI (HOP-62 NSCLC)
68.7 µM: TGI (A498 renal)
87.2 µM: TGI (SF-268 CNS)
52.7 µM: TGI (SF-539 CNS)
24.7 µM: TGI (TK-10 renal)
40.7 µM: TGI (SW-620 colon)
11 µM: TGI (UO-31 renal)
28.8 µM: TGI (HCT-116 colon)
52.9 µM: TGI (SNB-75 CNS)
46.9 µM: TGI (SN12C renal)
21.2 µM: TGI (COLO 205 colon)
38 µM: TGI (MDA-MB-231 breast)
32.3 µM: TGI (UACC-62 melanoma)
20.9 µM: TGI (RXF 393 renal)
55.6 µM: TGI (HL-60(TB) leukemia)
50.8 µM: TGI (SF-295 CNS)
18.8 µM: TGI (NCI-H522 lung)
31.7 µM: TGI (HCT-15 colon)
44.4 µM: TGI (786-0 renal)
19.6 µM: TGI (ACHN renal)
